This note sets out measurements from patent US8748417B2, “Amino-pyrrolidine-azetidine diamides as monoacylglycerol lipase inhibitors” (Janssen Pharmaceutica, NV, priority 2010, dated 2014).

This assay addresses T1, purified wild type MGL (wt-MGLL 6H-11-313) (Homo sapiens, UniProt Q99685).
T1 construct: purified wild type MGL (wt-MGLL 6H-11-313)
T1 sequence (Q99685 1-303): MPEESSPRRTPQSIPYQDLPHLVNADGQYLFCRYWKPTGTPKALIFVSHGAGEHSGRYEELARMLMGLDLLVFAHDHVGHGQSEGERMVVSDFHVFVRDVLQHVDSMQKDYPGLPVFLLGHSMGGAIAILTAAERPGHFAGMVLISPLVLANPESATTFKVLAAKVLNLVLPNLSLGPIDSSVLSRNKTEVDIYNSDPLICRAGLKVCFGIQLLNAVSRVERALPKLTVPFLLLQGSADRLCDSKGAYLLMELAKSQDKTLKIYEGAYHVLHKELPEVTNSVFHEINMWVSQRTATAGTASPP
The experiment in a line: MGL enzyme activity assay (4MU-B cleavage), wild type MGL. It is filed as biochemical. The conditions noted are these: wild type MGL 5 nM, 4MU-B 10 μM, 37° C.; read-out: MGL wild type inh IC50. On the procedure:
All rate-based assays were performed in black 384-well polypropylene PCR microplates (Abgene) in a total volume of 30 μL. Substrate 4-methylumbelliferyl butyrate (4MU-B; Sigma) and either purified mutant MGL (mut-MGLL 11-313 L179S L186S) or purified wild type MGL (wt-MGLL 6H-11-313) were diluted separately into 20 mM PIPES buffer (pH=7.0), containing 150 mM NaCl and 0.001% Tween 20. Compounds of Formula (I) were pre-dispensed (50 nL) into the assay plate using a Cartesian Hummingbird prior to adding 4MU-B (25 μL of 1.2× solution to a final concentration of 10 μM) followed by enzyme (5 μL of a 6× solution to a final concentration of 5 nM) to initiate the reaction. Final compound concentrations ranged from 17 to 0.0003 μM. The fluorescence change due to 4MU-B cleavage was monitored with excitation and emission wavelengths of 335 and 440 nm, respectively, and a bandwidth of 10 nm (Safire^2, Tecan) at 37° C. for 5 min.
The IC50 values for the following compounds were determined using Microsoft Office Excel from a fit of the equation to the concentration-response plot of the fractional activity as a function of inhibitor concentration.
Consider `O=C(c1ccccc1)N1CC[C@H](NC2CN(C(=O)c3cc4cc(Br)ccc4o3)C2)C1` [Cpd 107, (3S)-N-{1-[(5-Bromo-1-benzofuran-2-yl)carbonyl]azetidin-3-yl}-1-(phenylcarbonyl)pyrrolidin-3-amine], for which the IC50 (usually the concentration needed to halve the response being measured) is greater than 16700 nM.
On to `O=C(c1ccccc1)N1CC[C@H](NC2CN(C(=O)c3sc4cc(C(F)(F)F)ccc4c3F)C2)C1` [Cpd 89, (3S)-N-(1-{[3-Fluoro-6-(trifluoromethyl)-1-benzothiophen-2-yl]carbonyl}azetidin-3-yl)-1-(phenylcarbonyl)pyrrolidin-3-amine], for which the IC50 is 154 nM.
With `Cn1nc(-c2ccc(F)cc2)c2cc(C(=O)N3CC(N[C@H]4CCN(C(=O)c5ccccc5)C4)C3)ccc21` [Cpd 211, (3S)-N-(1-{[3-(4-Fluorophenyl)-1-methyl-1H-indazol-5-yl]carbonyl}azetidin-3-yl)-1-(phenylcarbonyl)pyrrolidin-3-amine], the concentration for half-maximal inhibition (IC50) stood at 943 nM.
The value for `O=C(c1ccc2c(cnn2-c2ccccc2)c1)N1CC(N[C@H]2CCN(C(=O)c3nccs3)C2)C1` [Cpd 120, (3S)-N-{1-[(1-Phenyl-1H-indazol-5-yl)carbonyl]azetidin-3-yl}-1-(1,3-thiazol-2-ylcarbonyl)pyrrolidin-3-amine] was 372 nM; that for `O=C(c1ccc2c(-c3ccccc3)ncnc2c1)N1CC(N[C@H]2CCN(C(=O)c3cscn3)C2)C1` [Cpd 112, (3S)-N-{1-[(4-Phenylquinazolin-7-yl)carbonyl]azetidin-3-yl}-1-(1,3-thiazol-4-ylcarbonyl)pyrrolidin-3-amine] was 1660 nM.
Take `Cc1nc(-c2ccc(Cl)cc2)sc1C(=O)N1CC(N[C@H]2CCN(C(=O)c3nccs3)C2)C1` [Cpd 137, (3S)-N-(1-{[2-(4-Chlorophenyl)-4-methyl-1,3-thiazol-5-yl]carbonyl}azetidin-3-yl)-1-(1,3-thiazol-2-ylcarbonyl)pyrrolidin-3-amine]: the IC50 was 446 nM.
`Cn1nc(-c2ccccc2)c2cc(C(=O)N3CC(N[C@H]4CCN(C(=O)c5cscn5)C4)C3)ccc21` [Cpd 196, (3S)-N-{1-[(1-Methyl-3-phenyl-1H-indazol-5-yl)carbonyl]azetidin-3-yl}-1-(1,3-thiazol-4-ylcarbonyl)pyrrolidin-3-amine]: the IC50 amounted to 298 nM.
The value for `Cn1nc(-c2ccc(F)cc2)c2cc(C(=O)N3CC(N[C@H]4CCN(C(=O)c5cscn5)C4)C3)ccc21` [Cpd 210, (3S)-N-(1-{[3-(4-Fluorophenyl)-1-methyl-1H-indazol-5-yl]carbonyl}azetidin-3-yl)-1-(1,3-thiazol-4-ylcarbonyl)pyrrolidin-3-amine] was 2040 nM.
The same measure for `O=C(c1cscn1)N1CC[C@H](NC2CN(C(=O)c3cc4cc(Br)ccc4s3)C2)C1` [Cpd 98, (3S)-N-{1-[(5-Bromo-1-benzothiophen-2-yl)carbonyl]azetidin-3-yl}-1-(1,3-thiazol-4-ylcarbonyl)pyrrolidin-3-amine]: 3100 nM; for `Cn1nc(-c2cccc(F)c2)c2cc(C(=O)N3CC(N[C@H]4CCN(C(=O)c5cscn5)C4)C3)ccc21` [Cpd 200, (3S)-N-(1-{[3-(3-Fluorophenyl)-1-methyl-1H-indazol-5-yl]carbonyl}azetidin-3-yl)-1-(1,3-thiazol-4-ylcarbonyl)pyrrolidin-3-amine]: 843 nM; for `Cc1cc(-c2cccc(C(F)(F)F)c2)ccc1C(=O)N1CC(N[C@H]2CCN(C(=O)c3ccccc3)C2)C1` [Cpd 153, (3S)-N-(1-{[3-Methyl-3′-(trifluoromethyl)biphenyl-4-yl]carbonyl}azetidin-3-yl)-1-(phenylcarbonyl)pyrrolidin-3-amine]: 176 nM.
The value for `Cc1c(C(=O)N2CC(N(C=O)[C@H]3CCN(C(=O)c4nccs4)C3)C2)sc2ccc(Cl)cc12` [Cpd 82, N-{1-[(5-Chloro-3-methyl-1-benzothiophen-2-yl)carbonyl]azetidin-3-yl}-N-[(3S)-1-(1,3-thiazol-2-ylcarbonyl)pyrrolidin-3-yl]formamide] was 231 nM.
For the compound `O=C(c1ccc2nc(-c3ccccc3)sc2c1)N1CC(N[C@H]2CCN(C(=O)c3nccs3)C2)C1` [Cpd 133, (3S)-N-{1-[(2-Phenyl-1,3-benzothiazol-6-yl)carbonyl]azetidin-3-yl}-1-(1,3-thiazol-2-ylcarbonyl)pyrrolidin-3-amine], the IC50 worked out at 145 nM.
For the compound `O=C(c1cscn1)N1CC[C@H](NC2CN(C(=O)c3cc4ccc(Br)cc4s3)C2)C1` [Cpd 96, (3S)-N-{1-[(6-Bromo-1-benzothiophen-2-yl)carbonyl]azetidin-3-yl}-1-(1,3-thiazol-4-ylcarbonyl)pyrrolidin-3-amine], the IC50 worked out at 1050 nM.
Consider `O=C(c1ccccc1)N1CC[C@H](NC2CN(C(=O)c3sc4cc(F)ccc4c3C3CCC3)C2)C1` [Cpd 79, (3S)-N-{1-[(3-Cyclobutyl-6-fluoro-1-benzothiophen-2-yl)carbonyl]azetidin-3-yl}-1-(phenylcarbonyl)pyrrolidin-3-amine], for which the IC50 amounted to 281 nM.
As to `Cn1cc(-c2ccccc2)c2ccc(C(=O)N3CC(N[C@H]4CCN(C(=O)c5cscn5)C4)C3)cc21` [Cpd 170, (3S)-N-{1-[(1-Methyl-3-phenyl-1H-indol-6-yl)carbonyl]azetidin-3-yl}-1-(1,3-thiazol-4-ylcarbonyl)pyrrolidin-3-amine], the half-maximal inhibitory concentration (IC50) stood at 350 nM.
The same measure for `Cc1nc(-c2ccc(F)cc2)sc1C(=O)N1CC(N[C@H]2CCN(C(=O)c3nccs3)C2)C1` [Cpd 135, (3S)-N-(1-{[2-(4-Fluorophenyl)-4-methyl-1,3-thiazol-5-yl]carbonyl}azetidin-3-yl)-1-(1,3-thiazol-2-ylcarbonyl)pyrrolidin-3-amine]: 1130 nM; for `O=C(c1ccc2c(-c3ccccc3)ncnc2c1)N1CC(N[C@H]2CCN(C(=O)c3nccs3)C2)C1` [Cpd 110, (3S)-N-{1-[(4-Phenylquinazolin-7-yl)carbonyl]azetidin-3-yl}-1-(1,3-thiazol-2-ylcarbonyl)pyrrolidin-3-amine]: 311 nM.
Consider `O=C(c1ccccc1)N1CC[C@H](NC2CN(C(=O)c3cc4cc(-c5ccccc5)ccc4o3)C2)C1` [Cpd 121, (3S)-N-{1-[(5-Phenyl-1-benzofuran-2-yl)carbonyl]azetidin-3-yl}-1-(phenylcarbonyl)pyrrolidin-3-amine], for which the IC50 worked out at 1750 nM.
In the case of `Cc1nc(-c2cccc(Cl)c2)sc1C(=O)N1CC(N[C@H]2CCN(C(=O)c3nccs3)C2)C1` [Cpd 136, (3S)-N-(1-{[2-(3-Chlorophenyl)-4-methyl-1,3-thiazol-5-yl]carbonyl}azetidin-3-yl)-1-(1,3-thiazol-2-ylcarbonyl)pyrrolidin-3-amine], the IC50 was 165 nM.
For `O=C(c1cscn1)N1CC[C@H](NC2CN(C(=O)c3cc4ccc(C(F)(F)F)cc4s3)C2)C1` [Cpd 139, (3S)-1-(1,3-Thiazol-4-ylcarbonyl)-N-(1-{[6-(trifluoromethyl)-1-benzothiophen-2-yl]carbonyl}azetidin-3-yl)pyrrolidin-3-amine], the IC50 amounted to 311 nM.
The value for `Cn1nc(-c2ccc(F)cc2)c2cc(C(=O)N3CC(N[C@H]4CCN(C(=O)c5nccs5)C4)C3)ccc21` [Cpd 209, (3S)-N-(1-{[3-(4-Fluorophenyl)-1-methyl-1H-indazol-5-yl]carbonyl}azetidin-3-yl)-1-(1,3-thiazol-2-ylcarbonyl)pyrrolidin-3-amine] was 279 nM; that for `Cc1c(C(=O)N2CC(N(C=O)[C@H]3CCN(C(=O)c4ccccc4)C3)C2)sc2ccc(Cl)cc12` [Cpd 81, N-[1-[(5-Chloro-3-methyl-1-benzothiophen-2-yl)carbonyl]azetidin-3-yl]-N-[(3S)-1-(phenylcarbonyl)pyrrolidin-3-yl]formamide] was 4880 nM; that for `Cc1c(C(=O)N2CC(N[C@H]3CCN(C(=O)c4cscn4)C3)C2)sc2ccc(-c3cccc(C(F)(F)F)c3)cc12` [Cpd 125, (3S)-N-[1-({3-Methyl-5-[3-(trifluoromethyl)phenyl]-1-benzothiophen-2-yl}carbonyl)azetidin-3-yl]-1-(1,3-thiazol-4-ylcarbonyl)pyrrolidin-3-amine] was less than 5 nM.
Turning to `Cn1nc(-c2cccc(F)c2)c2cc(C(=O)N3CC(N[C@H]4CCN(C(=O)c5nccs5)C4)C3)ccc21` [Cpd 199, (3S)-N-(1-{[3-(3-Fluorophenyl)-1-methyl-1H-indazol-5-yl]carbonyl}azetidin-3-yl)-1-(1,3-thiazol-2-ylcarbonyl)pyrrolidin-3-amine], the IC50 was determined as 107 nM.
In the case of `O=C(c1ccc2c(-c3ccc(F)cc3)c[nH]c2c1)N1CC(N[C@H]2CCN(C(=O)c3cscn3)C2)C1` [Cpd 190, (3S)-N-(1-{[3-(4-Fluorophenyl)-1H-indol-6-yl]carbonyl}azetidin-3-yl)-1-(1,3-thiazol-4-ylcarbonyl)pyrrolidin-3-amine], the IC50 amounted to 114 nM.
The same measure for `O=C(c1ccc2c(ccn2-c2ncccn2)c1)N1CC(N[C@H]2CCN(C(=O)c3ccccc3)C2)C1` [Cpd 155, (3S)-1-(Phenylcarbonyl)-N-{1-[(1-pyrimidin-2-yl-1H-indol-5-yl)carbonyl]azetidin-3-yl}pyrrolidin-3-amine]: 1280 nM.
